Results from publication PMC10799292, “The Role of β-Defensin 1 Against Porphyromonas gingivalis Lipopolysaccharide-Mediated Inflammation in the THP-1 Cell Line” (Cureus, 2023).
No end group written: not given here.

Tests used:
THP-1 cells [1] = test: Apoptosis by flow cytometry (Annexin V & Dead Cell); type: cell-based, human; conditions: Pg-LPS 1 µg/mL alone
Experimental: Untreated control and Pg-LPS treated wells were also maintained. To the tubes, 100 μL of the Muse™ Annexin V & Dead Cell Reagents were added separately. The tubes were completely mixed by pipetting up and down or spinning at a medium speed for three to five seconds, followed by 20 minutes of incubation in the dark at room temperature. The cells were examined with a Flow Cytometer, gated against untreated control cells, and evaluated for apoptosis with the Muse FCS 3.0 software.
The Muse Annexin V & Dead Cell Kit is a method to analyze cells in various stages of apoptosis, where fluorescently labeled Annexin V binds to phosphatidylserine (PS), which translocates to the outer surface of the cell membrane upon the onset of apoptosis. 7-AAD is excluded from live and healthy cells and permeates late-stage apoptotic and dead cells. […] The result is depicted in Figure 9.

phagocytosis = conditions: via its effect on the cytoskeletal network; cited from earlier work
Source text: Two important functions of macrophages are to eliminate pathogens through phagocytosis and apoptosis of inflammatory cells and their subsequent clearance (efferocytosis). The present study analyzed the role of AMP, β-defensin 1, in Pg-LPS-stimulated THP-1 differentiated macrophage cells.

[2] = tested on: THP-1 differentiated macrophage cell line; test: Cytotoxicity evaluation of Pg-LPS by MTT method; type: cell-based, human; conditions: 24 h, 0.25-4 µg/mL
Experimental: The THP-1 cell line was cultured in DMEM and supplemented with 10% FBS, sodium bicarbonate, L-glutamine, and an antibiotic solution containing penicillin (100 U/mL), amphotericin B (2.5 µg/mL), and streptomycin (100 µg/mL). The cells were maintained in a 5% humidified CO2 incubator (NBS Eppendorf, Germany) at 37°C. To induce differentiation into macrophages, the THP-1 cell line was treated with 25 ng/mL phorbol 12-myristate 13-acetate (PMA) (cat. 91585, Sigma-Aldrich, USA) and incubated for 48 hours. Following incubation, the cells were seeded in a 96-well culture plate at a density of 5x10^4 cells/well and incubated for 24 hours in a humidified 5% CO2 incubator at 37°C.
After incubation of 24 hours, triplicate additions of Pg-LPS in various concentrations (0.25 µg, 0.5 µg, 1 µg, 2 µg, and 4 µg/mL) were done appropriately. […] The inhibitory concentration (IC50) value of Pg-LPS was determined by the ED50 software.
Inverted phase contrast microscopy (IPCM) using an Olympus CKX41 microscope (Olympus, Japan) equipped with an Optika Pro5 CCD camera (Optika, Italy) was utilized to directly observe the cells. Cell viability was determined using the MTT (3-(4,5-Dimethylthiazol-2-yl)-2,5-diphenyltetrazolium bromide) assay (Sigma, M-5655). […] The absorbance of this colored solution can be quantified by measuring at approximately 570 nm using a spectrophotometer. […]

THP-1 cells [3] = test: Cell cycle distribution by flow cytometry; type: cell-based, human; conditions: Pg-LPS alone, compared to untreated control cells
Experimental: Untreated control and Pg-LPS stimulated cells were also maintained. The MUSE Cell Cycle Kit was added, and the manufacturer's instructions were followed.

THP-1 cells [4] = test: Intracellular ROS generation, DCFDA assay; type: cell-based, human; conditions: Pg-LPS 1 µg/mL alone; DCFDA 30 min, ex 470 nm, em 635 nm; untreated control 2379
Experimental: Untreated control and Pg-LPS treated wells were also maintained. The cells were washed with PBS, and 50 µl of Dichlorodihydrofluorescein diacetate (DCFDA) was added, followed by incubation for 30 minutes. After incubation, excess dye was removed with PBS, and fluorescence was observed using a fluorescent microscope (Olympus CKX41 with Optika Pro5 CCD camera) and quantified with a fluorimeter at 470 nm excitation and emission at […] (Qubit 3.0, Life Technologies, USA), displaying the results in arbitrary units (AU).
The effect of β-defensin 1 on ROS generation in THP-1 cells stimulated with Pg-LPS was studied. DCFDA, a fluorogenic dye, measures hydroxyl, peroxyl, and other ROS activities within the cell. After entering the cell, DCFDA is deacetylated by cellular esterases into a non-fluorescent compound. This nonfluorescent chemical is then oxidized by ROS into […] (DCF), which, upon excitation with a blue filter, emits green fluorescence. When THP-1 cells were stimulated with Pg-LPS, there was a considerable increase in fluorescence, which decreased upon treatment with β-defensin 1, as shown in Figure 7 and Table 2.

[5] = directly interacting with LPS; cited from earlier work
Source text: (§1) One of the primary virulence factors of periodontitis, Pg-LPS, targets TLR4, which activates the NF-kB signaling pathway and triggers the secretion of inflammatory cytokines such as TNFα, IL-6, and chemokines, recruiting monocytes/macrophages to the site of infection. […] Cecropin A, a novel 37-residue cecropin-like antimicrobial ...

endothelial cells = conditions: cited from earlier work
Source text: as §1

RAW264.7 cells = conditions: stimulated with LPS; cited from earlier work
Source text: as §1

## Porphyromonas gingivalis lipopolysaccharide [Pg-LPS]
THP-1 cells [1]; untreated control 87.25%
  live cells: 74.40%
THP-1 cells [1]; untreated control Dead 3.65 %
  necrotic effect / Dead: 22.85%
phagocytosis
  effect on phagocytosis: suppresses phagocytosis
[2]
  cytotoxicity (in words): dose-dependent cytotoxicity
THP-1 cells [3]
  G0/G1 phase of the cell cycle (in words): increase in the G0/G1 phase of the cell cycle
THP-1 cells [4]
  ROS generation, Fluorescence intensity: 10743.55 AU

## cathelicidin
[5]
  LPS-neutralizing effect: potent LPS-neutralizing effect
Endothelial cells
  LPS-induced apoptosis: reducing LPS-induced apoptosis in endothelial cells

## Cecropin A: a novel 37-residue cecropin-like antimicrobial peptide isolated from a cecropia moth (KWKLFKKIEKVGQNIRDGIIKAGPAVAVVGQATQIAK; ends and bridges not checked; UniProt P01507 27-63, looked up)
RAW264.7 cells
  anti-inflammatory activities: showed anti-inflammatory activities
